6 molecules from patent publication US7160874B2, “Phenylalanine derivatives” (Ajinomoto Co., Inc., priority 1999, dated 2007) can be followed below.

Bounds are passed on as bounds.

The target in one test is T1, integrin α4β1 (Homo sapiens, UniProt P05556+P13612).
T1 construct: cell strain Jurkat (ATCC TIB-152) of human T cells, known to express integrin α4β1; host or cells: Jurkat (human T cell line)
As to the kind of experiment: VCAM antagonist activity (VCAM-1/α4β1 binding assay). Format: cell-based. The note with it: Jurkat cells binding to VCAM-1; read-out: VCAM antagonistic activity (IC50) α4β1. The gist of the method:
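Plates coated overnight at 4° C with recombinant human VCAM-1 (500 ng/ml, pH 9.6) and blocked. Calcein-AM-labelled Jurkat cells (α4β1) added with compound in HEPES/DMEM/0.1% BSA, 30 min at room temperature; unbound cells shaken off, bound fluorescence read at 485/535 nm. IC50 from binding relative to compound-free wells.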

In the next test the target is T2, integrin α4β7 (Homo sapiens, UniProt P13612+P26010).
T2 construct: lymphoma cell strain RPMI-8866 of human B cells, known to express integrin α4β7; endogenous in cells; host or cells: RPMI-8866 (human B lymphoma cell line)
T2 sequence (P13612 34-1032): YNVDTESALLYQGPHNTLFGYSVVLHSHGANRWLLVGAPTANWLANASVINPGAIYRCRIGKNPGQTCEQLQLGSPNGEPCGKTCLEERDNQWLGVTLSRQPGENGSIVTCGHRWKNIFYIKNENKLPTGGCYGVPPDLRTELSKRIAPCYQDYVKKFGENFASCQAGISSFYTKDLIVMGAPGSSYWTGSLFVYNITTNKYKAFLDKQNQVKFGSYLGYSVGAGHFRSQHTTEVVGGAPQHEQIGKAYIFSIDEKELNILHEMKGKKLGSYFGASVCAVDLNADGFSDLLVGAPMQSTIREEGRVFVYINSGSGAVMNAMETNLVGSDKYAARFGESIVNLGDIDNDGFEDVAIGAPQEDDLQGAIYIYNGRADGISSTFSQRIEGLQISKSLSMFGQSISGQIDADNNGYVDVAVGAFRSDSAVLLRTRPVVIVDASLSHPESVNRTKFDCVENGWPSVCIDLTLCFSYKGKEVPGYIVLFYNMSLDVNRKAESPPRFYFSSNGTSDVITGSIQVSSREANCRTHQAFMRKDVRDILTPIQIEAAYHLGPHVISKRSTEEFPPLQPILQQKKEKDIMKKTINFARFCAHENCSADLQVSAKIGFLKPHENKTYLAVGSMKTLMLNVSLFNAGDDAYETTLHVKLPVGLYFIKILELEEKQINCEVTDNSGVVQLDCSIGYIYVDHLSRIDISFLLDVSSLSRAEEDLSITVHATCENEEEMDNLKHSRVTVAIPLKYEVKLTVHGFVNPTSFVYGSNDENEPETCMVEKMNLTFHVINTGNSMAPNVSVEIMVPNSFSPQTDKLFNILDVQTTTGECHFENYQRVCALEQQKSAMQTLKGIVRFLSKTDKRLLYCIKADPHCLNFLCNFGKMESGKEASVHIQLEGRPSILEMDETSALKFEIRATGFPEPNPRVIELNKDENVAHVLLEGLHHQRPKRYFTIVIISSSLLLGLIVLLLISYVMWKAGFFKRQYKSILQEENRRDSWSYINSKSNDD
T2 sequence (P26010 20-798): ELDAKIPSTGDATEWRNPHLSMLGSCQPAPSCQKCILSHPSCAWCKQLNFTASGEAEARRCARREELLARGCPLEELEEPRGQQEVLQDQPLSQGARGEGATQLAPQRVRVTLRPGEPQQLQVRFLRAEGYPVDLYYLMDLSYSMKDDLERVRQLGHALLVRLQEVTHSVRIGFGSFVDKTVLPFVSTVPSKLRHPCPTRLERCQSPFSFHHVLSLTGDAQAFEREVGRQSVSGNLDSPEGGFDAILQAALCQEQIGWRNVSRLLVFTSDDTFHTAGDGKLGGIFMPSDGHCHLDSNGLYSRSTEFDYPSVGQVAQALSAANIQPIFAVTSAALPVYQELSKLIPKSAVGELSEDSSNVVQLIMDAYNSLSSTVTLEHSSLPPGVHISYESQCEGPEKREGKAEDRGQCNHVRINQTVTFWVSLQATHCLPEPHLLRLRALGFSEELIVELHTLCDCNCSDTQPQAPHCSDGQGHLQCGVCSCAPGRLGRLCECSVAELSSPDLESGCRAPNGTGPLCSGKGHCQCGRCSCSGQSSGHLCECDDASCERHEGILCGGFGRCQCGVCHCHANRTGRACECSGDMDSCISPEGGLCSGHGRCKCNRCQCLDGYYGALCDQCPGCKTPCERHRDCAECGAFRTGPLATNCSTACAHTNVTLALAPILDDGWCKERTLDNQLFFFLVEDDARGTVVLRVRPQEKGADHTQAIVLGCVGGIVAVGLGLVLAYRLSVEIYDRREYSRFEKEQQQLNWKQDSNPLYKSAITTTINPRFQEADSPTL
As to the kind of experiment: VCAM antagonistic activity (VCAM-1/α4β7 binding assay). Format: cell-based. Particulars: RPMI-8866 cells binding to VCAM-1; read-out: VCAM antagonistic activity (IC50) α4β7. The gist of the method:
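Calcein-AM-labelled human B-lymphoma RPMI-8866 cells bound to plate-coated recombinant human VCAM-1 in HEPES/DMEM/0.1% BSA with 4 mM MnCl2, with compound, 30 min at room temperature. Unbound cells removed by shaking; bound-cell fluorescence (ex 485/em 535 nm) versus compound-free wells gave IC50, binned.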

T1 sequence (P05556 21-798, one chain of several): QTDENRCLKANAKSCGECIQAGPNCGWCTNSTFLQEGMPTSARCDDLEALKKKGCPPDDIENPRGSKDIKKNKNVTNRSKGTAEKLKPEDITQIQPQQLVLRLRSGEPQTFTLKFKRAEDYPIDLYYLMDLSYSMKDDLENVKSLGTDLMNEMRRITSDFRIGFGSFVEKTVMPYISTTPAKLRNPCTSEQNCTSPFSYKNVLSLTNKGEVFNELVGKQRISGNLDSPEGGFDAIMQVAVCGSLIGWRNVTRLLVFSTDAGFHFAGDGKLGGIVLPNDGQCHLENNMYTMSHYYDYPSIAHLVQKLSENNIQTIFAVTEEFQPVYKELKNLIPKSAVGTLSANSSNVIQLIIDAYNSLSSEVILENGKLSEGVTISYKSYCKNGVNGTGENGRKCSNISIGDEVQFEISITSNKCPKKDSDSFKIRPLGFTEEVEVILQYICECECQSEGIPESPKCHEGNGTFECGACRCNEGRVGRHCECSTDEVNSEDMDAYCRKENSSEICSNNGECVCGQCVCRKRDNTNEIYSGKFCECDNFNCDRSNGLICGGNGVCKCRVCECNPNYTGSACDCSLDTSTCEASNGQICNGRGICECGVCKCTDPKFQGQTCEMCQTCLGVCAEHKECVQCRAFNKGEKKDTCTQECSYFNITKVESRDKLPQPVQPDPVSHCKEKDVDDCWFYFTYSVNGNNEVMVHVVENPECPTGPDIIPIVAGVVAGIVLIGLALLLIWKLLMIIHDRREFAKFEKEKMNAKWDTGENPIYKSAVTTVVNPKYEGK

What is called IC50 is the midpoint of a concentration-inhibition curve. Turning to `CCC(CC)(C(=O)N[C@@H](Cc1ccc(NC(=O)c2nc(S(C)(=O)=O)ncc2Cl)cc1)C(=O)O)C(=O)N1CCCC1` [Example 479, N-[2-(pyrrolidine-1-ylcarbonyl)-2-ethyl-butanoyl)-4-({[5-chloro-2-(methylsulfonyl)pyrimidine-4-yl]carbonyl}-amino)-L-phenyl-alanine], the values for the IC50 at integrin α4β1 and on integrin α4β7 were 20 to 100 nM and below 20 nM, respectively.
For `CCC(CC)(C(=O)N[C@@H](Cc1ccc(NC(=O)c2nc(NCc3ccc(OC)cc3)ncc2Cl)cc1)C(=O)O)C(=O)N1CCCC1` [Example 480, N-[2-(pyrrolidine-1-ylcarbonyl)-2-ethyl-butanoyl]-4-[({5-chloro-2-[(4-methoxybenzyl)amino]pyrimidine-4-yl}carbonyl)amino]-L-phenylalanine], the IC50 at integrin α4β1 was 20 to 100 nM; at integrin α4β7, below 20 nM.
Regarding `CCC(CC)(C(=O)N[C@@H](Cc1ccc(NC(=O)c2nc(N3CCCC3)ncc2Cl)cc1)C(=O)O)C(=O)N1CCCC1` [Example 481], the IC50 at integrin α4β1 is 20 to 100 nM; at integrin α4β7, below 20 nM.
With `CCC(CC)(C(=O)N[C@@H](Cc1ccc(NC(=O)c2nc(N3CCCCC3)ncc2Cl)cc1)C(=O)O)C(=O)N1CCCC1` [Example 482], the 50% inhibitory concentration (IC50) on integrin α4β1 was 100 to 2000 nM; at integrin α4β7 it was below 20 nM.
As to `CCCNc1ncc(Cl)c(C(=O)Nc2ccc(C[C@H](NC(=O)C(CC)(CC)C(=O)N3CCCC3)C(=O)O)cc2)n1` [Example 483], the IC50 was 20 to 100 nM at integrin α4β1 and below 20 nM at integrin α4β7.
As to `CCC(CC)(C(=O)N[C@@H](Cc1ccc(NC(=O)c2nc(NC)ncc2Cl)cc1)C(=O)O)C(=O)N1CCCC1` [Example 484], the IC50 was 20 to 100 nM on integrin α4β1 and below 20 nM at integrin α4β7.
